What was measured:
Format in all cases: in vivo
[1] = system: db/db mice fed a methionine-choline deficient (MCD) diet; assay: Biometric and serum biochemical parameters in db/db mice fed MCD diet
Description: This study is aimed at assessing the efficacy of silibinin both on liver and heart injury in NAFLD and at identifying the related molecular events. In order to investigate this issue, we used db/db mice fed a methionine-choline deficient (MCD) diet, a model combining the features of the metabolic syndrome with the histological pattern of NASH [23,24]. In fact, db/db mice fed an MCD diet do partially conserve increased visceral adiposity and an insulin resistant phenotype, while developing hepatocellular injury.
(§1) All procedures fulfilled the Italian Guidelines for the Use and Care of Laboratory Animals. Six-week-old male BKS.Cg-m+/+ Leprdb/J (db/db) obese mice and six-week-old male heterozygous db/m lean control mice were purchased. Animals were maintained in a temperature and light-controlled facility and permitted ad libitum consumption of water; after two week of acclimation, db/db mice were fed a MCD diet for 4 weeks, whereas db/m mice were fed a MCD diet supplemented with methionine and choline, i.e. a standard diet (SD), for the same period. Silibinin was dissolved in saline (vehicle) and daily administered intraperitoneally at a dosage of 20 mg/kg of body weight. Mice were distributed in 3 groups: group I included 6 db/m mice fed a control diet and treated with vehicle (db/m+SD); group II comprised 6 db/db mice fed a MCD diet and treated with vehicle (db/db+MCD); group III included 6 db/db mice fed a MCD diet and treated with silibinin (db/db+MCD+silibinin). Treatment was administered for a 4-week period; at the end of it, animals were sacrificed after an overnight fast. Blood, liver and heart samples were obtained and stored at −80° C. for further analysis.
(§2) Blood glucose was measured by Accuchek (Roche Diagnostics, Milan, Italy). Serum ALT and serum insulin were determined using a multichannel autoanalyzer. Liver triglycerides content was measured using a serum/tissue triglyceride colorimetric kit (Biovision, Mountain View, Calif.). Liver and heart isoprostanes and 8-hydroxyguanosine (8-OHG) were determined by enzyme-linked immunosorbent assay (ELISA) test; reduced glutathione (GSH) was assessed by a GSH assay. Liver and heart nitrite/nitrates were measured colorimetrically using Griess reagent, following manufacturer's instructions. ELISA kit for TNF-α was used on whole myocardial tissue protein extracts, following manufacturer's instructions.

[2] = system: db/db mice fed a methionine-choline deficient (MCD) diet; assay: Liver triglycerides content (colorimetric kit) in db/db mice fed MCD diet; conditions: 4 weeks MCD diet, silibinin 20 mg/kg i.p. daily
Description: All procedures fulfilled the Italian Guidelines for the Use and Care of Laboratory Animals. Six-week-old male BKS.Cg-m+/+ Leprdb/J (db/db) obese mice and six-week-old male heterozygous db/m lean control mice were purchased. Animals were maintained in a temperature and light-controlled facility and permitted ad libitum consumption of water; after two week of acclimation, db/db mice were fed a MCD diet for 4 weeks, whereas db/m mice were fed a MCD diet supplemented with methionine and choline, i.e. a standard diet (SD), for the same period. Silibinin was dissolved in saline (vehicle) and daily administered intraperitoneally at a dosage of 20 mg/kg of body weight. […]
as §2, with “ELISA kit for TNF-α was used on whole myocardial tissue protein extracts, following manufacturer's instructions.” left out

[3] = system: Liver mitochondrial respiratory chain (MRC) complexes I-V; assay: Mitochondrial respiratory chain activity assay in liver of treated mice; conditions: activity relative to db/m + SD group = 100, MCD diet, silibinin 20 mg/kg i.p. daily 4 weeks
Description: as §1, with “analysis. Mitochondrial respiratory chain (MRC) activities was determined as previously described. Briefly, liver tissues (50-70 mg) were homogenized with 15 vol of 20 mmol/L KP buffer, pH 7.4, and centrifuged at 800×g for 10 min. Respiratory chain enzymes and citrate synthase activities were measured in a DU-650 spectrophotometer. Incubation temperatures were 30° C. for complexes I, II, III, V, and citrate synthase, and 38° C. for complex IV. Enzyme activities were assessed in supernatants, expressed as nanomoles of substrate used per minute per milligram of protein and referred as a percentage of the specific activity of citrate synthase, to adjust for the hepatic content of mitochondria.” for “analysis.”

[4] = db/db mice, 4 weeks MCD diet, silibinin 20 mg/kg i.p. daily
[5] = db/db mice, 4 weeks MCD diet, silibinin 20 mg/kg i.p. daily, overnight fast

- Effect on food intake ([1]; data not shown): did not modify
Compound: COc1cc(C2Oc3cc([C@H]4Oc5cc(O)cc(O)c5C(=O)[C@@H]4O)ccc3OC2CO)ccc1O (stereo partly shown) [silibinin, Silibinin]
- HOMA-IR [1, 4]: 1.7 ± 0.5*, **
- Serum ALT [1, 4]: 180.5 ± 66.5*, ** IU/L
- Blood glucose [1, 5]: 103.7 ± 16.8*, ** mg/dL
- Serum insulin [1, 5]: 6.5 ± 1.1 mU/mL
- 12-Weeks weight ([1]; db/db mice, after 4 weeks MCD diet and silibinin 20 mg/kg i.p. daily): 34.8 ± 1.9 g
- Decrease of ALT levels ([1]; silibinin-treated vs vehicle db/db fed MCD diet): 3 fold
- Liver triglycerides [2]: 8.3 ± 2.4*, ** mg/g protein
- Liver MRC complex I [3]: 90.2 ± 5.2
- Liver MRC complex II [3]: 88.4 ± 4.3
- Liver MRC complex III [3]: 94.4 ± 6.8
- Liver MRC complex IV [3]: 96.1 ± 5.2
- Liver MRC complex V [3]: 94.3 ± 6.2
